The values below come from ChEMBL document CHEMBL1155502, “Modulation of 11beta-hydroxysteroid dehydrogenase type 1 activity by 1,5-substituted 1H-tetrazoles” (Bioorg Med Chem Lett, 2010).

The structures appear in SMILES notation.

The data set is described as follows: Metabolic stability in human liver microsomes assessed as compound remaining after 30 mins. Type of data set: ADME, Microsome. Particulars: read-out: Stability.
Take `O=C(CCc1nnnn1-c1ccccc1)C1CCCCC1`: the remaining at 0.5 h was 11%. Take `O=C(COc1nnnn1-c1ccccc1)c1ccccc1`: the remaining at 0.5 h stood at 4%.

On to `O=C(CCc1nnnn1Cc1ccccc1)c1ccccc1`, for which the remaining at 0.5 h was determined as 33%. With `O=C(CCn1nnnc1-c1cccc(Cl)c1)c1ccccc1`, the remaining at 0.5 h was 20%. With `O=C(CCn1nnnc1-c1cccnc1)c1ccccc1`, the remaining at 0.5 h was 81%. As for `O=C(CCn1nnnc1-c1ccccc1)c1ccccc1`, the remaining at 0.5 h was 29%. As for `COc1ccccc1-c1nnnn1CCC(=O)c1ccccc1`, the figure is 9%.

On to `COc1cccc(C(=O)CCc2nnnn2-c2ccccc2)c1`, for which the remaining at 0.5 h came to 14%. For the compound `O=C(CCn1nnnc1-c1ccc2c(c1)OCO2)c1ccccc1`, the remaining at 0.5 h was determined as 11%. `COc1cccc(-n2nnnc2CCC(=O)c2ccccc2)c1`: the remaining at 0.5 h came to 6%.

`N#Cc1ccc(-n2nnnc2CCC(=O)c2ccccc2)cc1`: the remaining at 0.5 h was determined as 37%. Turning to `CC(C)(C)C(=O)C[S+]([O-])c1nnnn1-c1ccccc1` (configuration not stated), the remaining at 0.5 h stood at 25%. For the compound `O=C(CCc1nnnn1-c1ccccc1)c1cccc(F)c1`, the remaining at 0.5 h was 21%. `O=C(CCc1nnnn1-c1ccccc1)c1cccc(Cl)c1`: the remaining at 0.5 h is 8%.

Turning to `CC(C)(C)C(=O)CS(=O)(=O)c1nnnn1-c1ccccc1`, the remaining at 0.5 h is 4%. As for `O=C(CCc1nnnn1C1CCCCC1)c1ccccc1`, the figure is 14%; as for `O=C(CCc1nnnn1-c1ccccc1)c1ccccc1`, 88%; as for `O=C(CCn1nnnc1-c1ccsc1)c1ccccc1`, 6%. Consider `Cc1ccccc1-n1nnnc1CCC(=O)c1ccccc1`, for which the remaining at 0.5 h amounted to 22%. Take `COc1ccc(-n2nnnc2CCC(=O)c2ccccc2)cc1`: the remaining at 0.5 h was 12%. On to `O=C(CCc1nnnn1C1CC1)c1ccccc1`, for which the remaining at 0.5 h was determined as 73%. In the case of `Cc1ccc(-n2nnnc2CCC(=O)c2ccccc2)cc1`, the remaining at 0.5 h worked out at 2%. Turning to `O=C(CCc1nnnn1-c1ccc(Cl)cc1)c1ccccc1`, the remaining at 0.5 h came out at 34%. As for `COc1ccccc1-n1nnnc1CCC(=O)c1ccccc1`, the figure is 42%; as for `O=C(CCn1nnnc1-c1cnccn1)c1ccccc1`, 31%.

Take `O=C(CCn1nnnc1-c1ncccn1)c1ccccc1`: the remaining at 0.5 h worked out at 53%. As for `COc1ccc(-c2nnnn2CCC(=O)c2ccccc2)cc1`, the remaining at 0.5 h is 18%. As for `O=C(CCn1nnnc1-c1ccccc1Cl)c1ccccc1`, the remaining at 0.5 h stood at 5%. For `Cc1cccc(-n2nnnc2CCC(=O)c2ccccc2)c1`, the remaining at 0.5 h worked out at 2%. Consider `O=C(CCc1nnnn1-c1cccnc1)c1ccccc1`, for which the remaining at 0.5 h was 81%. Consider `O=C(CCc1nnnn1C1CCc2ccccc21)c1ccccc1` (configuration not stated), for which the remaining at 0.5 h stood at 1%. `O=C(CCc1nnnn1C1CCCc2ccccc21)c1ccccc1` (configuration not stated): the remaining at 0.5 h is 7%.
